Data on 44 molecules can be found in patent US9212134B2, “Inhibitors of viral entry into mammalian cells” (priority 2010, dated 2015).

By CC50 is commonly meant the concentration at which the toxic effect on the cells reaches its halfway point. High values mean lower toxicity to the cells, low ones greater toxicity to the cells. The term IC50 denotes the concentration that inhibits the measured activity by half. A lower IC50 goes with inhibition by little substance. Usually inhibition stands for how much of the control response was suppressed.

“Also recorded” adds a separate entry of the source.

Data set [1] relates to cell viability (endogenous cellular GAPDH). As to the kind of experiment: Cell viability, AlphaScreen SureFire GAPDH assay. The conditions noted are these: cytotoxicity.
Data set [2] has as its system HIV/HA (H5) pseudotype virus. As to the kind of experiment: organism not typed. The format is cell-based, influenza A virus H5N1. To be noted: for inhibition at 25 µM: A549, read-out: % inhibition @ 25 μM influenza.
The subject of data set [3] is HIV/VSV-G pseudotype virus. Kind of data set: organism not typed. The data set is classed as cell-based, vesicular stomatitis virus. To be noted: read-out: % inhibition @ 25 μM VSV.
The next data set concerns Pseudotype ebola virus. As to the kind of experiment: microbe, parasite or virus in culture. The data set is classed as cell-based. To be noted: Zaire ebolavirus, read-out: % inhibition @ 25 μM EBOV.
Another data set deals with HIV/HA pseudotype virus. The data set is classed as cell-based, influenza A virus H5N1.
Data set [4] concerns Influenza A virus [A/WS/33]. As to the kind of experiment: Plaque assay of influenza A virus A/WS/33 on MDCK cells. The data set is classed as cell-based, influenza A virus A/WS/33 (H1N1). The conditions noted are these: 25-200 nM (FIG. 7).

`O=C(CN(c1ccc(Cl)cc1Cl)S(=O)(=O)c1ccccc1)Nc1ccccc1F` [Compound 6]: the half-maximal cytotoxic concentration (CC50) in data set [1] was over 25 µM. Further, in data set [2], half-maximal inhibition (IC50) was put at 5.3 µM.
The corresponding values for `COc1cccc(N(CC(=O)Nc2cc(Cl)cc(Cl)c2)S(=O)(=O)c2ccccc2)c1` [Compound 7] are 31.5 µM and 18.5 µM.
On the same counts, the results for `COc1ccc(OC)c(N(CC(=O)Nc2ccc(Cl)cc2)S(=O)(=O)c2ccc(C)cc2)c1` [Compound 8] are over 100 µM and over 100 µM.
The corresponding values for `O=C(CN(c1ccc(Cl)c(Cl)c1)S(=O)(=O)c1ccccc1)Nc1ccccc1` [Compound 9] are 42 µM and 20 µM.
In turn, `O=C(CN(c1ccc(Cl)cc1Cl)S(=O)(=O)c1ccccc1)Nc1ccc(F)cc1` [Compound 10] came in with a cytotoxic concentration (CC50) in data set [1] of 50.5 µM. It took 25 µM to reach half-maximal inhibition in data set [2] (IC50).
The corresponding values for `COc1ccc(N(CC(=O)Nc2ccccc2C)S(=O)(=O)c2ccccc2)cc1` [Compound 11] are over 100 µM and over 100 µM.
On the same counts, the results for `COc1ccc(N(CC(=O)Nc2ccc(F)cc2)S(=O)(=O)c2ccccc2)cc1` [Compound 12] are over 100 µM and over 100 µM.
Molecule `COc1ccc(N(CC(=O)Nc2c(OC)cccc2OC)S(=O)(=O)c2ccccc2)cc1` [Compound 13] returned a CC50 in data set [1] of over 100 µM. In data set [2], the IC50 was over 100 µM.
On to `COc1ccccc1N(CC(=O)Nc1cccc(C)c1C)S(=O)(=O)c1ccccc1` [Compound 14], for which the CC50 in data set [1] is over 100 µM. The 50% inhibitory concentration (IC50) in data set [2] was over 100 µM.
Turning to `COc1cccc(NC(=O)CN(c2ccc(Cl)cc2C)S(=O)(=O)c2ccc(C)cc2)c1` [Compound 15], the midpoint of cytotoxicity in data set [1], the CC50, lay at 43.4 µM. Moreover, the IC50 in data set [2] is over 100 µM.
On the same counts, the results for `COc1ccc(NC(=O)CN(c2ccc(Cl)cc2)S(=O)(=O)c2ccc(C)cc2)cc1` [Compound 16] are over 100 µM and over 100 µM.
On the same counts, the results for `Cc1cccc(C)c1NC(=O)CN(c1cccc(Cl)c1)S(=O)(=O)c1ccccc1` [Compound 17] are over 100 µM and over 100 µM.
With `COc1ccc(NC(=O)CN(c2cccc(Cl)c2)S(=O)(=O)c2ccccc2)c(OC)c1` [Compound 18], in data set [1], the cytotoxic concentration (CC50) is over 100 µM. In data set [2], this molecule showed a concentration for half-maximal inhibition (IC50) of over 100 µM.
On to `O=C(CN(c1cccc(Cl)c1)S(=O)(=O)c1ccccc1)Nc1ccccc1Cl` [Compound 19], for which, in data set [1], the midpoint of cytotoxicity, the CC50, lay at 90.3 µM. In data set [2], this molecule had a concentration for half-maximal inhibition (IC50) of over 100 µM.
On the same counts, the results for `Cc1cccc(C)c1NC(=O)CN(c1ccccc1Cl)S(=O)(=O)c1ccccc1` [Compound 20] are over 100 µM and over 100 µM.
Consider `COc1ccc(OC)c(NC(=O)CN(c2ccccc2Cl)S(=O)(=O)c2ccc(C)cc2)c1` [Compound 21], for which the cytotoxic concentration (CC50) in data set [1] was over 100 µM. This molecule also came in with an IC50 in data set [2] of over 100 µM.
In the case of `Cc1ccc(S(=O)(=O)N(CC(=O)Nc2cccc(C)c2)c2ccccc2Cl)cc1` [Compound 22], the half-maximal cytotoxic concentration (CC50) in data set [1] is over 100 µM. In data set [2], this molecule registered a half-maximal inhibitory concentration (IC50) of over 100 µM.
The molecule `COc1ccc(NC(=O)CN(c2ccccc2Cl)S(=O)(=O)c2ccc(C)cc2)c(OC)c1` [Compound 23] showed a half-maximal cytotoxic concentration (CC50) in data set [1] of over 100 µM. The same molecule showed an IC50 in data set [2] of over 100 µM.
In the case of `COC(=O)c1ccccc1NC(=O)CN(c1ccc(C)cc1)S(=O)(=O)c1ccc(OC)cc1` [Compound 11978_G07], the inhibition at 25 µM is 29% in data set [3], 22% in data set [2] and 89% in the data set on Pseudotype ebola virus.
Regarding `CCOc1ccc(N(C(C)C(=O)Nc2cccc(C(F)(F)F)c2)S(C)(=O)=O)cc1` (stereo not drawn) [Compound 11982_F11], the inhibition at 25 µM in data set [3] was 73%; in data set [2], 87%; in the data set with Pseudotype ebola virus it was 25%.
`COc1cccc(N(CC(=O)Nc2ccc(CSc3ccccc3)cc2)S(C)(=O)=O)c1` [Compound 11997_F05]: the results for the inhibition at 25 µM (in data set [3]; in data set [2]; in the data set on Pseudotype ebola virus) were 51%, 100% and 41%, respectively.
Regarding `Cc1cccc(NC(=O)CN(c2cccc(Cl)c2Cl)S(C)(=O)=O)c1` [Compound 11998_D06], the results for the inhibition at 25 µM (in data set [3]; in data set [2]; in the data set with Pseudotype ebola virus) were 0%, 88% and 0%, respectively.
As for `CS(=O)(=O)N(CC(=O)Nc1ccccc1F)c1cc(C(F)(F)F)ccc1Cl` [Compound 12020_E02], the figures for the inhibition at 25 µM (in data set [3]; in data set [2]; in the data set with Pseudotype ebola virus) were 68%, 86% and 43%, respectively.
In the case of `COc1ccc(Cl)cc1NC(=O)CN(c1cccc(Cl)c1Cl)S(C)(=O)=O` [Compound 12021_B02], the values for the inhibition at 25 µM (in data set [3]; in data set [2]; in the data set with Pseudotype ebola virus) were 70%, 87% and 0%, respectively.
The corresponding values for `CCc1ccc(N(CC(=O)Nc2ccc(Oc3ccccc3)cc2)S(C)(=O)=O)cc1` [Compound 12066_B08] are 24%, 98% and 31%.
Regarding `Cc1c(Cl)cccc1NC(=O)CN(c1ccc(I)cc1)S(C)(=O)=O` [Compound 12076_B09], the figures for the inhibition at 25 µM (in data set [3]; in data set [2]; in the data set on Pseudotype ebola virus) were 21%, 86% and 48%, respectively.
Take `COc1ccccc1NC(=O)CN(c1ccc(Cl)cc1C)S(C)(=O)=O` [Compound 12078_B05]: the inhibition at 25 µM is 36% in data set [3], 96% in data set [2] and 42% in the data set on Pseudotype ebola virus.
On the same counts, the results for `COc1ccc(S(=O)(=O)N(CC(=O)Nc2ccc(F)c(Cl)c2)c2ccccc2)cc1` [Compound 12078_D04] are 60%, 40% and 87%.
The corresponding values for `COc1ccc(S(=O)(=O)N(CC(=O)Nc2ccc(F)cc2F)c2ccc(Cl)cc2)cc1` [Compound 12079_A05] are 0%, 19% and 86%.
The corresponding values for `COc1ccc(Cl)cc1N(CC(=O)Nc1ccc(F)cc1F)S(=O)(=O)c1ccc(C)cc1` [Compound 12096_A08] are 42%, 88% and 38%.
As to `CCOc1ccccc1NC(=O)CN(c1cc(Cl)ccc1Cl)S(C)(=O)=O` [Compound 12110_D02], the inhibition at 25 µM amounted to 2% in data set [3], 90% in data set [2] and 0% in the data set with Pseudotype ebola virus.
As to `CCc1ccccc1N(CC(=O)Nc1cccc(F)c1)S(C)(=O)=O` [Compound 12112_H02], the inhibition at 25 µM in data set [3] came out at 0%; in data set [2], 86%; in the data set on Pseudotype ebola virus it was 0%.
`COc1ccc(S(=O)(=O)N(CC(=O)Nc2cccc3ccccc23)c2ccc(C)cc2)cc1` [Compound 12305_B04]: the inhibition at 25 µM in data set [3] amounted to 0%; in data set [2] it was 47%; in the data set with Pseudotype ebola virus it was 85%.
On to `COc1ccc(S(=O)(=O)N(CC(=O)Nc2cccc3ccccc23)c2ccc(Cl)cc2)cc1` [Compound 12308_B02], for which the inhibition at 25 µM in data set [3] was 23%; in data set [2], 46%; with Pseudotype ebola virus it was 96%.
For the molecule `Cc1ccc(N(CC(=O)Nc2ccccc2C(C)C)S(C)(=O)=O)cc1` [Compound 12402_E03], the values for the inhibition at 25 µM (in data set [3]; in data set [2]; with Pseudotype ebola virus) were 22%, 47% and 85%, respectively.
The corresponding values for `Cc1ccc(S(=O)(=O)N(CC(=O)Nc2ccccc2C(F)(F)F)c2ccc(F)cc2)cc1` [Compound 12440_F06] are 45%, 46% and 93%.
The corresponding values for `COc1ccc(N(CC(=O)Nc2ccccc2F)S(=O)(=O)c2ccccc2)cc1Cl` [Compound 12441_B08] are 7%, 33% and 98%.
The corresponding values for `COc1ccc(S(=O)(=O)N(CC(=O)Nc2ccccc2SC)c2ccc(Cl)cc2)cc1` [Compound 12794_B09] are 63%, 0% and 100%.
Regarding `COc1ccc(N(CC(=O)Nc2ccccc2SC)S(=O)(=O)c2ccc(F)cc2)cc1` [Compound 12794_H03], the results for the inhibition at 25 µM (in data set [3]; in data set [2]; with Pseudotype ebola virus) were 77%, 47% and 100%, respectively.
The corresponding values for `COc1ccc(N(CC(=O)Nc2ccccc2-c2ccccc2)S(=O)(=O)c2ccc(F)cc2)cc1` [Compound 12838_B07] are 77%, 46% and 99%.
The corresponding values for `COC(=O)c1ccccc1NC(=O)CN(c1ccc(C)cc1)S(=O)(=O)c1ccccc1` [Compound 30636_C03] are 42%, 26% and 87%.
Take `O=C(CN(c1ccccc1F)S(=O)(=O)c1ccccc1)Nc1cccc(C(F)(F)F)c1` [Compound 30656_D10]: the inhibition at 25 µM in data set [3] was determined as 59%; in data set [2] it was 87%; in the data set on Pseudotype ebola virus, 31%.
Consider `Cl.N` [NH4Cl, ammonium chloride], for which the “reduction of HIV/HA virus infection” value in the data set with HIV/HA pseudotype virus is on record as “significantly reduced the virus infection”.
On to `CO/C1=C\C(C)=C\[C@@H](C)[C@@H](O)[C@@H](C)C/C(C)=C/C=C/[C@H](OC)[C@@H]([C@@H](C)[C@@H](O)[C@H](C)[C@@]2(O)C[C@@H](O)[C@H](C)[C@@H](C(C)C)O2)OC1=O` [bafilomycin A], for which the “inhibition of infectivity of influenza virus infection” value in data set [4] is on record as “efficiently inhibited the infectivity”. Besides, in the data set with HIV/HA pseudotype virus, the “inhibition of infectivity of HIV/HA pseudotype virus” value is listed as “efficiently inhibited the infectivity; also recorded: prevented HIV/HA infection”.
